Series [1] is described as follows: Base-catalysed (alkaline) hydrolysis with LiOH in THF:H2O. The following applies: for half-life at 2.5 g/L: LiOH in tetrahydrofuran/water (6:4).
Method: (§1) The reaction was started by adding LiOH (24 μL, 1 mol/l), and the mixture was incubated at 37 °C for 5, 10, 20, and 30 min, under stirring in a water bath. At the end of the incubation period, an aliquot (20 μL) was transferred to a new tube, and subsequently, HCl (0.3 μL, 10% v:v) was added. The pH of the sample was checked to verify neutralisation, and acetonitrile (480 μL) was added. The final concentrations of all compounds in the solution were 2,5 g/L. Finally, the samples were filtered through PVDF syringe filters (Millex®: 0.22 µm pore size) and analysed by HPLC[15].
(§2) A Shimadzu Prominence HPLC system (Shimadzu, Tokyo, Japan) consisting of a UV/VIS Photodiode Array Detector (SPD-M20A), a binary pump (LC-20AD), a vacuum degasser (DGU-20A5), and an autosampler (SIL-20A) was used for analyses. The Chromatographic separation was achieved using a reversed phase (Kromasil® C18 HPLC Column: particle size 5 µm, L × I.D. 250 × 4.6 mm) preceded by a guard column (Phenomenex® C18: 4 × 3 mm). The column was held at ambient temperature (22 ± 2 °C). For the selection of the wavelength, the diode array-detector was used. To avoid interference with impurities, the longest suitable wavelength was chosen to evaluate the chromatograms, which allowed for sensitivity. The mobile phase was a combination of eluent A (0.1% formic acid) and eluent B (acetonitrile). Three mobile phases were carried out using an injection volume of 20 µL and an flow rate set at 1.0 ml/min. […] A:B 40:60 v/v. […] A:B 90:10 v/v; 4–8 min. linear-gradient from 90% A to A:B 60:40 v/v; 8–12 min. A:B 60:40 v/v.
(§3) The time in minutes required to reduce half the initial amount of each ester compound (i.e., half-life - t1/2) was calculated using the expression t1/2 = 0.693/a, with "a" being the slope of the natural log of concentration of the sample vs. the incubation time.
Series [2] can be described thus: Rat plasma hydrolytic study. As to conditions: for half-life at 500 μM: male, Wistar, rat, rat plasma (80% in phosphate buffer), pH 7.4.
Method: (§4) Rat plasma was obtained from male Wistar rats’ blood and diluted in phosphate buffer (pH 7.4) to obtain a final plasma concentration of 80%. […] The sample was incubated at 37 °C for 5, 10, 20, and 30 min, under stirring. At the end of the incubation time, the reaction was stopped by adding methanol (500 μL) and acetonitrile (500 μL), both in ice-cold temperature. The mixture was centrifuged at 13.500 rpm for 15 min at 4 °C. The organic phase was transferred to a microtube, and the IS (1.25 µL) was added. Finally, the samples were filtered through PVDF syringe filters (Millex®: 0.22 µm pore size) and analysed by HPLC[16].
as §2
(§5) The biologic hydrolysis of the esters 1–12 was carried out using rat plasma and rat liver microsomes. Each compound's half-life (t1/2) was calculated using the expression t1/2 = 0.693/a, as previously described.
Series [3] can be described thus: Hydrolytic study using rat liver microsomes. The format is in vitro ADME. The following applies: male, Wistar, 1 mg/mL microsomal fraction, absence of cofactor, 37 °C, read-out: Hydrolysis t1/2 Rat liver microsomes. On the procedure: Rat liver microsomes were obtained from male Wistar rats (280–330 g) and prepared according to the methodology described by Cabrera and co-workers[17]. After obtaining rat liver microsomes, the protein quantification was done by a bicinchoninic acid assay using a commercial protein determination kit obtained from Sigma-Aldrich (St Louis MO, USA)[18]. […] The reaction was stopped by adding organic solvents at ice-cold temperature (i.e., 500 µL of methanol and 500 µL of acetonitrile).
(ii) Compounds 8–9: 0–15 min. A:B 40:60 v/v. (iii) Compounds 13–16: 0–4 min. […] A:B 60:40 v/v.
Given those results, we decided to study the comparative metabolic behaviour of the esters 1 and 2, 5 and 6, 11 and 12, using another biological matrix rich in carboxylesterases. Therefore, the kinetics of hydrolysis was established using rat liver microsomes in the absence of cofactor in order to prevent eventual oxidative metabolic reactions catalysed by CYP450 or FMO.

The conditions of series [4]: pH 7.4.
Method: as §4, §2, §5
The conditions of series [5]: buffer.
Method: as §1, §2, §3
Series [6] deals with carboxylesterase (CES). Briefly: Enzymatic inhibition study in rat plasma with CES inhibitor bis(p-nitrophenyl)phosphate. In kind it is in vitro ADME. The following applies: bis(p-nitrophenyl)phosphate 1, 10, 100 µM; ester 500 µM, 90 min. On the procedure: The inhibitor was pre-incubated for 30 min at 37 °C, with (i) plasma (ii) rat liver microsomes and phosphate buffer pH 7,4 (final volume of 250 µL). […] The mixture was incubated again at 37 °C for 90 min under agitation. The analysis was performed by the same HPLC method used in the previous experiments. […] Data were expressed as percentages of inhibition.

[7] abbreviates: Hydrolysis t1/2 Alkaline, LiOH, THF:H2O, 37 °C.

The source of these data is PMC8856110, “Comparative chemical and biological hydrolytic stability of homologous esters and isosteres” (Journal of Enzyme Inhibition and Medicinal Chemistry, 2022).

Read-outs that look alike come from different tables or passages of the source.

As for `CCCOC(=O)c1ccccc1` [Compound 3, n-propyl benzoate], the half-life at 2.5 g/L in series [1] was found to be 19 min. In series [2], the half-life at 500 μM was determined as 10 min.
For `COC(=O)Cc1ccccc1` [Compound 8, methyl 2-phenylacetate], the half-life at 2.5 g/L in series [1] (setting [7]) stood at 39 min. In addition, the half-life at 500 μM in series [2] stood at 3 min. The “Loss of plasma metabolic stability relative to ester 1” value in series [2] (rat plasma, versus ester 1) is on record as “twelve times less stable”.
As to `CCOC(=O)c1cccc(Br)c1` [Compound 11, ethyl 3-bromobenzoate], in series [3], the half-life was 12 min. Moreover, the half-life at 2.5 g/L in series [1] turned out to be 25 min. In series [2], this compound registered a half-life at 500 μM of 11 min.
The compound `CCOC(=O)c1ncn2c1CN(C)C(=O)c1cc(F)ccc1-2` [Compound 15, flumazenil, reference compound] registered a half-life at 500 μM in series [2] of 89 min. Moreover, in series [2] (rat plasma, versus 16), the “Times less stable to plasma hydrolysis than methyl homologous 16” value came out at 2.7 times.
The compound `COC(=O)c1ncn2c1CN(C)C(=O)c1cc(F)ccc1-2` [Compound 16, methyl 8-fluoro-5-methyl-6-oxo-4H-imidazo[1,5-a][1,4]benzodiazepine-3-carboxylate] came in with a half-life at 500 μM in series [2] of 238 min.
For methyl 2-naphthoate [Compound 7], the “Hydrolysis t1/2 Rat plasma” value in series [4] worked out at 17 min. For the same compound, the “Hydrolysis t1/2 Alkaline” value in series [5] was determined as 29 min.
As for `CCOC(=O)c1ccccc1Br` [Compound 10, ethyl 2-bromobenzoate], in series [1], the half-life at 2.5 g/L turned out to be 15 min. Further, the half-life at 500 μM in series [2] is 10 min.
On to `COC(=O)c1ccccc1` [Compound 1, methyl benzoate], for which the half-life in series [3] turned out to be 15 min. Also, the half-life at 2.5 g/L in series [1] is 14 min. The half-life at 500 μM in series [2] was determined as 36 min.
For the compound `O=C(OCc1ccccc1)c1ccccc1` [Compound 6, benzyl benzoate], in series [3], the half-life amounted to 13 min. Also, in series [1], the half-life at 2.5 g/L was determined as 16 min. This compound displayed a half-life at 500 μM in series [2] of 12 min.
On to `CCOC(=O)c1ccc(N)cc1` [Compound 13, ethyl 4-aminobenzoate, reference compound], for which, in series [2], the half-life at 500 μM is 13 min.
The same measure, in the same setting: the result for `COC(=O)c1ccc(N)cc1` [Compound 14, methyl 4-aminobenzoate] reads 27 min.
Regarding `CCCCOC(=O)c1ccccc1` [Compound 4, n-butyl benzoate], the half-life at 2.5 g/L in series [1] came to 21 min. The half-life at 500 μM in series [2] worked out at 10 min.
`CCOC(=O)c1ccc(Br)cc1` [Compound 12, ethyl 4-bromobenzoate]: the half-life in series [3] is 10 min. The same compound registered a half-life at 2.5 g/L in series [1] of 12 min. The compound further displayed a half-life at 500 μM in series [2] of 12 min.
As to `CCOC(=O)c1ccccc1` [Compound 2, ethyl benzoate], the half-life in series [3] stood at 12 min. The half-life at 2.5 g/L in series [1] (setting [7]) worked out at 15 min. In addition, the “Hydrolysis t1/2 Alkaline” value in series [1] (LiOH, THF:H2O, 37 °C) was 14 min. Further, in series [2], the half-life at 500 μM turned out to be 17 min. In addition, the “Metabolism in rat plasma in the presence of the CES inhibitor” value in series [6] was “strongly reduced”.
For `O=C(Oc1ccccc1)c1ccccc1` [Compound 5, phenyl benzoate], the half-life in series [3] was 10 min. Also, in series [1], the half-life at 2.5 g/L is 11 min. The compound further gave a half-life at 500 μM in series [2] of 7 min.
Turning to `CC(=O)Oc1ccccc1` [Compound 9], the half-life at 2.5 g/L in series [1] (setting [7]) stood at 58 min. The same compound came in with a half-life at 500 μM in series [2] of 19 min.
